Results: patent EP4707280A1, “1,4-CINEOLE DERIVATIVE AND INTERMEDIATE THEREOF, HERBICIDE CONTAINING SAID DERIVATIVE AS ACTIVE INGREDIENT, METHOD FOR USING HERBICIDE, AND METHOD FOR PREPARING AGROCHEMICAL COMPOSITION” (HOKKO CHEMICAL INDUSTRY CO., LTD., priority 2023, dated 2024)

Columns and labels:
Type in all cases: in vivo
Echinochloa crus-galli [1] = experiment: Test Example 4: herbicidal effect test by stem and leaf treatment in upland field; details: Echinochloa crus-galli; 120 g per 10 ares; sprayed seven days after sowing, upland soil; 14 days after application; read-out: weed inhibition rate
Digitaria ciliaris [2] = experiment: Test Example 3: herbicidal effect test by soil application in upland field; details: Digitaria ciliaris, 120 g per 10 ares, sprayed one day after sowing, 14 days after application, read-out: weed inhibition rate
In short: (§1)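 Weed inhibition (%) was assessed 14 days after treatment, in duplicate per concentration group. Seeds had been mixed into the upper 1 cm of upland alluvial loam, and the soil surface was sprayed one day later with the diluted emulsifiable concentrate at 120 g active ingredient per 10 ares.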

Echinochloa crus-galli [3] = experiment: as above; details: Echinochloa crus-galli, 120 g per 10 ares, sprayed one day after sowing, 14 days after application, read-out: weed inhibition rate
In short: as §1

Monochoria vaginalis [4] = experiment: Test Example 1: herbicidal effect test by soil application in paddy rice; details: Pontederia vaginalis, soil, 336 h; 120 g active ingredient per 10 ares; applied immediately after sowing, flooded pots; 14 days after application; read-out: weed inhibition rate
In short: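 Inhibition rate (%) read 14 days after treatment, duplicate pots. Water-diluted emulsifiable concentrate was applied by dropper at 120 g active ingredient/10 ares right after sowing. Seeds (30 per species, 0–1 cm deep) went into puddled paddy soil kept flooded at about 3 cm in a greenhouse.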

Monochoria vaginalis [5] = experiment: Test Example 5: herbicidal effect test by soil application in paddy rice (low dose); details: Pontederia vaginalis, 336 h, 7.5 g per 10 ares, applied immediately after sowing, flooded pots, 14 days after application, read-out: weed inhibition rate
In short: (§2)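 7.5 g a.i./10 a applied by dropper into ~3 cm floodwater immediately post-sowing (seeds 0–1 cm, 30 per species; puddled fertilized paddy soil, glasshouse). Duplicates; day-14 inhibition %.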

Scirpus juncoides = experiment: as above; details: Schoenoplectiella juncoides, 336 h, 7.5 g per 10 ares, applied immediately after sowing, flooded pots, 14 days after application, read-out: weed inhibition rate
In short: as §2

[6] = test system: Echinochloa crus-galli var. formosensis; experiment: as above; details: Echinochloa crus-galli, soil, 336 h; 7.5 g per 10 ares; applied immediately after sowing, flooded pots; 14 days after application; read-out: weed inhibition rate
In short: as §2

Digitaria ciliaris [7] = experiment: Test Example 4: herbicidal effect test by stem and leaf treatment in upland field; details: Digitaria ciliaris; 120 g per 10 ares; sprayed seven days after sowing, upland soil; 14 days after application; read-out: weed inhibition rate
Digitaria ciliaris [8] = experiment: Test Example 8: herbicidal effect test by stem and leaf treatment in upland field (low dose); details: Digitaria ciliaris; 7.5 g per 10 ares; sprayed seven days after sowing, upland soil; 14 days after application; read-out: weed inhibition rate
Echinochloa crus-galli [9] = experiment: as above; details: Echinochloa crus-galli; 7.5 g per 10 ares; sprayed seven days after sowing, upland soil; 14 days after application; read-out: weed inhibition rate

CC(C)[C@]12C[C@@H](OCc3c(F)cccc3Cl)[C@](C)(CC1=O)O2 [2-28, (1R,4S,5R)-5-((2-chloro-6-fluorobenzyl)oxy)-1-isopropyl-4-methyl-7-oxabicyclo[2.2.1]heptan-2-one]
≥ 80%: inhibition at 1200 g/ha (Echinochloa crus-galli [1]) | inhibition at 1200 g/ha (Digitaria ciliaris [2]) | inhibition at 1200 g/ha (Echinochloa crus-galli [3]) | pest or weed control at 1200 g/ha (Monochoria vaginalis [4]) | inhibition at 75 g/ha (Monochoria vaginalis [5]) | inhibition at 75 g/ha (Scirpus juncoides) | inhibition at 75 g/ha [6] | inhibition at 1200 g/ha (Digitaria ciliaris [7]) | inhibition at 75 g/ha (Digitaria ciliaris [8]) | inhibition at 75 g/ha (Echinochloa crus-galli [9])
